Test results as given in patent US20260258048A1, “LACTAM-CONTAINING IMIDAZOPYRIDAZINE IL-17 INHIBITOR COMPOUNDS” (Janssen Pharmaceutica NV, priority 2023, published 2026).

Legend:
[1] = target: IL-17A(FLAG-tagged): IL-17RA(His-tagged) (Homo sapiens, UniProt Q16552, K93Q); experiment: IL-17A(FLAG-tagged): IL-17RA(His-tagged) binding disruption Eu-HTRF assay
Outline: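 Compound (22-point, 2-fold series) was pre-incubated 1 h at rt with FLAG-IL-17A, added as a 2× solution (1 μM). A 2× mix of C-terminal 10×His IL-17RA, Eu-anti-FLAG donor and D2-anti-His acceptor in PBS/0.01% Triton X-100/200 mM KF was then added for 2 h at rt. The 665/615 nm ratio was fitted to one-site competition for IC50.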

[2] = tested on: IL-17A-induced G-CSF production in human normal keratinocyte (NHK); experiment: NHK assay: IL-17A-induced G-CSF production in normal human keratinocytes; type: cell-based; settings: 24 h, IL-17A 5 ng/mL
Outline: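 Adult keratinocytes at 3000-4000 cells/well; recombinant human IL-17A pre-incubated 1 h at rt with titrated compound, then added to cells (final 5 ng/mL IL-17A, 0.2% DMSO, 5% FBS) for 24 h at 37 °C. Supernatant G-CSF quantified by HTRF against a standard curve to give IC50; viability checked by CellTiter-Glo versus DMSO.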

[3] = class of the average IC50 where tested more than once
[4] = Homo sapiens, Keratinocyte, class of the average IC50 where tested more than once
[5] = Homo sapiens, Keratinocyte, value in brackets, Table 4

Sequence of UniProt Q16552 (Q16552 with tags, fused parts or gaps K93Q): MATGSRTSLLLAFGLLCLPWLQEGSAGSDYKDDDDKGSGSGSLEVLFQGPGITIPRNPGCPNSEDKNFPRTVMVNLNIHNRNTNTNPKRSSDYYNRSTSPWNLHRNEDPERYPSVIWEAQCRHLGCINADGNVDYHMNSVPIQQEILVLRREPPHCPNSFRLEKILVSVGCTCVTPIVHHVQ

SMILES	IC50 [1, 3] [nM]	IC50 ([1]; value in brackets, Table 4) [nM]	IC50 [2, 4] [nM]	IC50 [2, 5] [nM]	IC50 [2, 3] [nM]	potency increase in the HTRF IC50 when compared to its C-3 epimer ([1]; (S)-configuration on C-3 (cis) vs (R)-epimer (trans): Example 51 vs 52, Example 59 vs 60)
O=C(N[C@H](c1cn2ncc(C[C@@H]3C[C@@H](C(F)(F)F)NC3=O)cc2n1)C1CCC(F)(F)CC1)c1nonc1C1CC1 [Example 60, 4-Cyclopropyl-N—[(S)-(4,4-difluorocyclohexyl)-[7-[[(3R,5S)-2-oxo-5-(trifluoromethyl)pyrrolidin-3-yl]methyl]imidazo[1,2-b]pyridazin-2-yl]methyl]-1,2,5-oxadiazole-3-carboxamide]	400 to 4000	1140	> 4000	> 4000	–	–
O=C(N[C@H](c1cn2ncc(CC3C[C@@H](C4CC4)NC3=O)cc2n1)C1CCC(F)(F)CC1)c1nonc1C1CC1 (single isomer, unassigned) [Example 42, 4-Cyclopropyl-N—((S)-(7-(((3S*,5S)-5-cyclopropyl-2-oxopyrrolidin-3-yl)methyl)imidazo[1,2-b]pyridazin-2-yl)(4,4-difluorocyclohexyl)methyl)-1,2,5-oxadiazole-3-carboxamide]	< 400	–	–	–	< 400	–
CC1(C)CNC(=O)C1Cc1cnn2cc([C@@H](NC(=O)c3nonc3C3CC3)C3CCC(F)(F)CC3)nc2c1 (single isomer, unassigned) [Example 16, 4-Cyclopropyl-N—[(S)-(4,4-difluorocyclohexyl)-[7-[[(3S*)-4,4-dimethyl-2-oxo-pyrrolidin-3-yl]methyl]imidazo[1,2-b]pyridazin-2-yl]methyl]-1,2,5-oxadiazole-3-carboxamide]	400 to 4000	–	–	–	> 4000	–
O=C(N[C@H](c1cn2ncc(CC3CC4(COC4)NC3=O)cc2n1)C1CCC(F)(F)CC1)c1nonc1C1CC1 (stereo partly drawn) [Example 98, 4-Cyclopropyl-N-((1S)-(4,4-difluorocyclohexyl)(7-((6-oxo-2-oxa-5-azaspiro[3.4]octan-7-yl)methyl)imidazo[1,2-b]pyridazin-2-yl)methyl)-1,2,5-oxadiazole-3-carboxamide]	> 4000	–	> 4000	–	–	–
O=C(N[C@H](c1cn2ncc(C[C@@H]3C[C@H](C(F)(F)F)NC3=O)cc2n1)C1CCC(F)(F)CC1)c1nonc1C1CC1 (relative stereo) [Example 68, 4-Cyclopropyl-N—((S)-(4,4-difluorocyclohexyl)(7-(((3R*,5R*)-2-oxo-5-(trifluoromethyl)pyrrolidin-3-yl)methyl)imidazo[1,2-b]pyridazin-2-yl)methyl)-1,2,5-oxadiazole-3-carboxamide]	400 to 4000	–	400 to 4000	–	–	–
COc1nonc1C(=O)N[C@H](c1cn2ncc(CC3C[C@@H](C(F)(F)F)NC3=O)cc2n1)C1CCC(F)(F)CC1 (single isomer, unassigned) [Example 7, N—[(S)-(4,4-Difluorocyclohexyl)-[7-[[(3R*,5S)-2-oxo-5-(trifluoromethyl)pyrrolidin-3-yl]methyl]imidazo[1,2-b]pyridazin-2-yl]methyl]-4-methoxy-1,2,5-oxadiazole-3-carboxamide]	< 400	–	–	–	< 400	–
CC(C)[C@H]1C[C@@H](Cc2cnn3cc([C@@H](NC(=O)c4nonc4C4CC4)C4CCC(F)(F)CC4)nc3c2)C(=O)N1 (relative stereo) [Example 94, 4-Cyclopropyl-N—[(S)-(4,4-difluorocyclohexyl)-[7-[[(3R*,5R*)-5-isopropyl-2-oxo-pyrrolidin-3-yl]methyl]imidazo[1,2-b]pyridazin-2-yl]methyl]-1,2,5-oxadiazole-3-carboxamide]	< 400	–	< 400	–	–	–
O=C(N[C@H](c1cn2ncc(CC3C[C@@H](C4CC4)NC3=O)cc2n1)C1CCC(F)(F)CC1)c1nonc1C1CC1 (single isomer, unassigned) [Example 43, 4-Cyclopropyl-N—((S)-(7-(((3R*,5S)-5-cyclopropyl-2-oxopyrrolidin-3-yl)methyl)imidazo[1,2-b]pyridazin-2-yl)(4,4-difluorocyclohexyl)methyl)-1,2,5-oxadiazole-3-carboxamide]	400 to 4000	–	–	–	> 4000	–
CC(C)n1nccc1C(=O)N[C@H](c1cn2ncc(C[C@H]3C[C@@H](C(F)(F)F)NC3=O)cc2n1)C1CCC(F)(F)CC1 [Example 51, N—((S)-(4,4-Difluorocyclohexyl)(7-(((3S,5S)-2-oxo-5-(trifluoromethyl)pyrrolidin-3-yl)methyl)imidazo[1,2-b]pyridazin-2-yl)methyl)-1-isopropyl-1H-pyrazole-5-carboxamide]	< 400	150	< 400	50	–	more than 100 fold
Cc1nonc1C(=O)N[C@H](c1cn2ncc(C[C@@H]3CC[C@H](C(F)(F)F)NC3=O)cc2n1)C1CCC(F)(F)CC1 (relative stereo) [Example 48, N—((S)-(4,4-difluorocyclohexyl)7-(((3S*,6R*)-2-oxo-6-(trifluoromethyl)piperidin-3-yl)methyl)imidazo[1,2-b]pyridazin-2-yl)methyl)-4-methyl-1,2,5-oxadiazole-3-carboxamide]	> 4000	–	> 4000	–	–	–
Cc1nonc1C(=O)N[C@H](c1cn2ncc(C[C@H]3CC[C@@H](C(F)(F)F)NC3=O)cc2n1)C1CCC(F)(F)CC1 (relative stereo) [Example 47, N—((S)-(4,4-difluorocyclohexyl)7-(((3R*,6S*)-2-oxo-6-(trifluoromethyl)piperidin-3-yl)methyl)imidazo[1,2-b]pyridazin-2-yl)methyl)-4-methyl-1,2,5-oxadiazole-3-carboxamide]	< 400	–	400 to 4000	–	–	–
CC(C)[C@H]1C[C@H](Cc2cnn3cc([C@@H](NC(=O)c4nonc4C4CC4)C4CCC(F)(F)CC4)nc3c2)C(=O)N1 (relative stereo) [Example 93, 4-Cyclopropyl-N—[(S)-(4,4-difluorocyclohexyl)-[7-[[(3S*,5R*)-5-isopropyl-2-oxo-pyrrolidin-3-yl]methyl]imidazo[1,2-b]pyridazin-2-yl]methyl]-1,2,5-oxadiazole-3-carboxamide]	400 to 4000	–	400 to 4000	–	–	–
O=C(N[C@H](c1cn2ncc(CC3CCNC3=O)cc2n1)C1CCC(F)(F)CC1)c1nonc1C1CC1 (single isomer, unassigned) [Example 21, 4-Cyclopropyl-N—[(S)-(4,4-difluorocyclohexyl)-[7-[[(3R*)-2-oxopyrrolidin-3-yl]methyl]imidazo[1,2-b]pyridazin-2-yl]methyl]-1,2,5-oxadiazole-3-carboxamide]	400 to 4000	–	> 4000	–	–	–
O=C(N[C@H](c1cn2ncc(C[C@]34CC[C@@H](C3)NC4=O)cc2n1)C1CCC(F)(F)CC1)c1nonc1C1CC1 (single isomer, unassigned) [Example 18]	400 to 4000	–	400 to 4000	–	–	–
O=C(N[C@H](c1cn2ncc([C@H]3C[C@@]34C[C@@H](C(F)(F)F)NC4=O)cc2n1)C1CCC(F)(F)CC1)c1nonc1C1CC1 (relative stereo) [Example 41, 4-Cyclopropyl-N—((S)-(4,4-difluorocyclohexyl)(7-((1R*,3R*,6S)-4-oxo-6-(trifluoromethyl)-5-azaspiro[2.4]heptan-1-yl)imidazo[1,2-b]pyridazin-2-yl)methyl)-1,2,5-oxadiazole-3-carboxamide]	> 4000	–	> 4000	–	–	–
O=C(N[C@H](c1cn2ncc(CC3CC(F)(F)CNC3=O)cc2n1)C1CCC(F)(F)CC1)c1nonc1C1CC1 (single isomer, unassigned) [Example 2, 4-Cyclopropyl-N—((S)-(7-(((S*)-5,5-difluoro-2-oxopiperidin-3-yl)methyl)imidazo[1,2-b]pyridazin-2-yl)(4,4-difluorocyclohexyl)methyl)-1,2,5-oxadiazole-3-carboxamide]	400 to 4000	–	–	–	> 4000	–
O=C(N[C@H](c1cn2ncc(CC3CC(F)(F)CNC3=O)cc2n1)C1CCC(F)(F)CC1)c1nonc1C1CC1 (single isomer, unassigned) [Example 1, 4-Cyclopropyl-N—((S)-(7-(((R*)-5,5-difluoro-2-oxopiperidin-3-yl)methyl)imidazo[1,2-b]pyridazin-2-yl)(4,4-difluorocyclohexyl)methyl)-1,2,5-oxadiazole-3-carboxamide]	< 400	–	–	–	< 400	–
O=C(N[C@H](c1cn2ncc([C@H](O)[C@H]3C[C@H](C(F)(F)F)NC3=O)cc2n1)C1CCC(F)(F)CC1)c1nonc1C1CC1 (relative stereo) [Example 63, 4-Cyclopropyl-N—((S)-(4,4-difluorocyclohexyl)(7-((R*)-hydroxy((3R*,5R*)-2-oxo-5-(trifluoromethyl)pyrrolidin-3-yl)methyl)imidazo[1,2-b]pyridazin-2-yl)methyl)-1,2,5-oxadiazole-3-carboxamide]	400 to 4000	–	> 4000	–	–	–
